Measurements taken from patent US10766869B2, “Triazoles for the treatment of demyelinating dieases” (Vertex Pharmaceuticals Incorporated, priority 2015, dated 2020).
Read-outs that look alike come from different tables or passages of the source.

System: primary rat mixed cortical cells
Test: In vitro myelination assay (MBP positive myelin strands, fold myelin pixels above background)
Type: cell-based
Details: Rattus norvegicus; for fold induction at 1 µM: 1.0 μM compound; for fold induction at 10 µM: 10.0 μM compound
In short: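 Mixed cortical culture, P1 rat, 87,500-95,000 cells/well; compound present from seeding, refreshed days 6 and 10; 14 d, 37 °C, 5% CO2. Day 14: PFA fix, anti-MBP + Hoechst. Read-out: fold MBP myelin pixels over untreated, tested at 1.0 and 10.0 μM.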

[1] = relative to baseline of no added compound, read-out: Fold myelin pixels above background, 1.0 μM
[2] = relative to baseline of no added compound, read-out: Fold myelin pixels above background, 10.0 μM
[3] = relative to baseline of no added compound, read-out: Fold myelin pixels above background
[4] = read-out: Fold myelin pixels above background relative to baseline of no added compound

Structure (SMILES)	fold induction at 1 µM [1]	fold induction at 10 µM [2]	further results
Cc1cc(Nc2ncn(-c3cc(F)cc(F)c3)n2)cc(N2CCN3C(=O)OCC3C2)c1 (stereo not drawn) [Compound 200, 7-[3-[[1-(3,5-difluorophenyl)-1,2,4-triazol-3-yl]amino]-5-methyl-phenyl]-5,6,8,8a-tetrahydro-1H-oxazolo[3,4-a]pyrazin-3-one]	100 to 1000	100 to 1000	–
COCCN(C)c1cc(F)cc(-n2cnc(Nc3cc(C)cc(N4CCN(C5COC5)CC4)c3)n2)c1 [Compound 373, 1-[3-fluoro-5-[2-methoxyethyl(methyl)amino]phenyl]-N-[3-methyl-5-[4-(oxetan-3-yl)piperazin-1-yl]phenyl]-1,2,4-triazol-3-amine]	100 to 1000	100 to 1000	–
Cc1cc(Nc2ncn(-c3cccc(Cl)c3)n2)cc(N2CCN(C)CC2)c1 [Compound 141, 1-(3-chlorophenyl)-N-[3-methyl-5-(4-methylpiperazin-1-yl)phenyl]-1,2,4-triazol-3-amine]	100 to 1000	≤ 1	–
Cc1cc(Nc2ncn(-c3cc(C)ccc3F)n2)cc(N2CCN(C3COC3)CC2)c1 [Compound 476, 1-(2-fluoro-5-methyl-phenyl)-N-[3-methyl-5-[4-(oxetan-3-yl)piperazin-1-yl]phenyl]-1,2,4-triazol-3-amine]	–	–	fold induction at 1 µM [3]: 10 to 100; fold induction at 10 µM [3]: 10 to 100
COCc1cc(Nc2ncn(-c3cccc(C(F)(F)F)c3)n2)nc(N2CCN(C3COC3)CC2)c1 [Compound 625, 4-(methoxymethyl)-6-[4-(oxetan-3-yl)piperazin-1-yl]-N-[1-[3-(trifluoromethyl)phenyl]-1,2,4-triazol-3-yl]pyridin-2-amine]	–	–	fold induction at 1 µM [3]: 1 to 10; fold induction at 10 µM [3]: 10 to 100
COC1CCN(c2cc(C)cc(Nc3ncn(-c4cc(F)cc(F)c4)n3)c2)C1 (stereo not drawn) [Compound 164, 1-(3,5-difluorophenyl)-N-[3-(3-methoxypyrrolidin-1-yl)-5-methyl-phenyl]-1,2,4-triazol-3-amine]	1 to 10	1 to 10	–
CCc1cc(Nc2ncn(-c3cnccn3)n2)cc(N2CCNCC2)c1 [Compound 124, N-(3-ethyl-5-piperazin-1-yl-phenyl)-1-pyrazin-2-yl-1,2,4-triazol-3-amine]	1000 to 10000	≤ 1	–
COC1CCN(C2CCN(c3cc(C)cc(Nc4ncn(-c5cc(F)cc(F)c5)n4)c3)CC2)CC1 [Compound 1068, 1-(3,5-difluorophenyl)-N-[3-[4-(4-methoxy-1-piperidyl)-1-piperidyl]-5-methyl-phenyl]-1,2,4-triazol-3-amine]	–	–	fold induction at 1 µM [4]: 10 to 100; fold induction at 10 µM [4]: 10 to 100
CN1CCN(c2cc(Nc3ncn(-c4cc(F)cc(F)c4)n3)cc(C(F)(F)F)c2)CC1 [Compound 63, 1-(3,5-difluorophenyl)-N-[3-(4-methylpiperazin-1-yl)-5-(trifluoromethyl)phenyl]-1,2,4-triazol-3-amine]	10 to 100	1 to 10	–
Cc1cc(Nc2ncn(-c3cccc(F)c3)n2)nc(N2CC(N3CCOCC3)C2)c1 [Compound 538, N-[1-(3-fluorophenyl)-1,2,4-triazol-3-yl]-4-methyl-6-(3-morpholinoazetidin-1-yl)pyridin-2-amine]	–	–	fold induction at 1 µM [3]: 1 to 10; fold induction at 10 µM [3]: 1 to 10
Cc1cc(Nc2ncn(-c3cc(F)cc(Cl)c3)n2)cc(N2CCN(C)CC2)c1 [Compound 220, 1-(3-chloro-5-fluoro-phenyl)-N-[3-methyl-5-(4-methylpiperazin-1-yl)phenyl]-1,2,4-triazol-3-amine]	10 to 100	≤ 1	–
COc1ccc(-n2cnc(Nc3cc(C4CC4)nc(N4CCOCC4)c3)n2)cc1OC [Compound 354, 2-cyclopropyl-N-[1-(3,4-dimethoxyphenyl)-1,2,4-triazol-3-yl]-6-morpholino-pyridin-4-amine]	1 to 10	100 to 1000	–
Cc1cc(Nc2ncn(-c3cc(F)cc(F)c3)n2)nc(C2CCN(C3COC3)CC2)c1 [Compound 801, N-[1-(3,5-difluorophenyl)-1,2,4-triazol-3-yl]-4-methyl-6-[1-(oxetan-3-yl)-4-piperidyl]pyridin-2-amine]	–	–	fold induction at 1 µM [4]: 1 to 10; fold induction at 10 µM [4]: 1 to 10
Cc1cc(Nc2ncn(-c3cc(F)cc(F)c3F)n2)cc(N2CCN(C3COC3)CC2)c1 [Compound 484, N-[3-methyl-5-[4-(oxetan-3-yl)piperazin-1-yl]phenyl]-1-(2,3,5-trifluorophenyl)-1,2,4-triazol-3-amine]	–	–	fold induction at 1 µM [3]: ≤ 1; fold induction at 10 µM [3]: ≤ 1
Cc1cc(Nc2ncn(-c3ccccc3)n2)cc(N2CCCN(C)CC2)c1 [Compound 179, N-[3-methyl-5-(4-methyl-1,4-diazepan-1-yl)phenyl]-1-phenyl-1,2,4-triazol-3-amine]	100 to 1000	≤ 1	–
Fc1cc(Nc2ncn(-c3cnccn3)n2)cc(N2CCN(C3COC3)CC2)c1 [Compound 598, N-[3-fluoro-5-[4-(oxetan-3-yl)piperazin-1-yl]phenyl]-1-pyrazin-2-yl-1,2,4-triazol-3-amine]	–	–	fold induction at 1 µM [3]: 1 to 10; fold induction at 10 µM [3]: 1 to 10
Cc1cc(Nc2ncn(-c3cc(F)cc(F)c3)n2)cc(N2CCCC3(COC3)C2)c1 [Compound 541, 1-(3,5-difluorophenyl)-N-[3-methyl-5-(2-oxa-8-azaspiro[3.5]nonan-8-yl)phenyl]-1,2,4-triazol-3-amine]	–	–	fold induction at 1 µM [3]: ≤ 1; fold induction at 10 µM [3]: 1 to 10
CCc1cc(Nc2ncn(-c3cc(F)ccc3F)n2)cc(N2CCN(C3COC3)CC2)c1 [Compound 417, 1-(2,5-difluorophenyl)-N-[3-ethyl-5-[4-(oxetan-3-yl)piperazin-1-yl]phenyl]-1,2,4-triazol-3-amine]	–	–	fold induction at 1 µM [3]: 100 to 1000; fold induction at 10 µM [3]: 1000 to 10000
COCCN1CCN(c2cc(C)cc(Nc3ncn(-c4ccccc4)n3)c2)CC1 [Compound 253, N-[3-[4-(2-methoxyethyl)piperazin-1-yl]-5-methyl-phenyl]-1-phenyl-1,2,4-triazol-3-amine]	1000 to 10000	10 to 100	–
COc1cccc(-n2cnc(Nc3cc(Cl)nc(N4CCCCC4)c3)n2)c1 [Compound 106, 2-chloro-N-[1-(3-methoxyphenyl)-1,2,4-triazol-3-yl]-6-(1-piperidyl)pyridin-4-amine]	≤ 1	1 to 10	–
CC(=O)N1CCC(Oc2cc(C)cc(Nc3ncn(-c4cc(F)cc(F)c4)n3)c2)CC1 [Compound 805, 1-[4-[3-[[1-(3,5-difluorophenyl)-1,2,4-triazol-3-yl]amino]-5-methyl-phenoxy]-1-piperidyl]ethanone]	–	–	fold induction at 1 µM [4]: 10 to 100; fold induction at 10 µM [4]: 1 to 10
Cc1cc(Nc2ncn(-c3ccccc3)n2)cc(N2CCN(C)C(C)C2)c1 (stereo not drawn) [Compound 133, N-[3-(3,4-dimethylpiperazin-1-yl)-5-methyl-phenyl]-1-phenyl-1,2,4-triazol-3-amine]	1000 to 10000	≤ 1	–
Cc1cc(Nc2ncn(-c3cc(F)cc(F)c3)n2)cc(N2CC(N3C[C@@H](C)O[C@H](C)C3)C2)c1 [Compound 857, 1-(3,5-difluorophenyl)-N-[3-[3-[(2R,6R)-2,6-dimethylmorpholin-4-yl]azetidin-1-yl]-5-methyl-phenyl]-1,2,4-triazol-3-amine]	–	–	fold induction at 1 µM [4]: 10 to 100; fold induction at 10 µM [4]: 10 to 100
Cc1cc(Nc2ncn(-c3cccc(C(F)F)c3)n2)cc(N2CCN(C3COC3)CC2)c1 [Compound 833, 1-[3-(difluoromethyl)phenyl]-N-[3-methyl-5-[4-(oxetan-3-yl)piperazin-1-yl]phenyl]-1,2,4-triazol-3-amine]	–	–	fold induction at 1 µM [4]: 1 to 10; fold induction at 10 µM [4]: ≤ 1
Cc1cc(Nc2ncn(-c3cc(F)cc(F)c3)n2)cc(C2=CCN(C3COC3)CC2)c1 [Compound 61, 1-(3,5-difluorophenyl)-N-[3-methyl-5-[1-(oxetan-3-yl)-3,6-dihydro-2H-pyridin-4-yl]phenyl]-1,2,4-triazol-3-amine]	1000 to 10000	≤ 1	–
Cc1cc(Nc2ncn(-c3cc(F)cc(F)c3)n2)cc(NC2CCN(CC3CCCO3)CC2)c1 (stereo not drawn) [Compound 891, N3-[1-(3,5-difluorophenyl)-1,2,4-triazol-3-yl]-5-methyl-N1-[1-(tetrahydrofuran-2-ylmethyl)-4-piperidyl]benzene-1,3-diamine]	–	–	fold induction at 1 µM [4]: 1 to 10; fold induction at 10 µM [4]: ≤ 1
Cc1cc(Nc2ncn(-c3ccccc3)n2)cc(N2CCN(C3CC3)CC2)c1 [Compound 149, N-[3-(4-cyclopropylpiperazin-1-yl)-5-methyl-phenyl]-1-phenyl-1,2,4-triazol-3-amine]	1000 to 10000	10 to 100	–
Fc1ccc(-n2cnc(Nc3cc(Cl)cc(N4CC(N5CCOCC5)C4)c3)n2)cc1F [Compound 784, N-[3-chloro-5-(3-morpholinoazetidin-1-yl)phenyl]-1-(3,4-difluorophenyl)-1,2,4-triazol-3-amine]	–	–	fold induction at 1 µM [3]: 10 to 100; fold induction at 10 µM [3]: 10 to 100
COc1nccc(-n2cnc(Nc3cc(C4CC4)cc(N4CCN(C5COC5)CC4)c3)n2)n1 [Compound 277, N-[3-cyclopropyl-5-[4-(oxetan-3-yl)piperazin-1-yl]phenyl]-1-(2-methoxypyrimidin-4-yl)-1,2,4-triazol-3-amine]	10 to 100	100 to 1000	–
CCc1cc(Nc2ncn(-c3ccc(F)c(F)c3)n2)cc(N2CC(N3CCOCC3)C2)c1 [Compound 198, 1-(3,4-difluorophenyl)-N-[3-ethyl-5-(3-morpholinoazetidin-1-yl)phenyl]-1,2,4-triazol-3-amine]	100 to 1000	10 to 100	–
